The values below come from patent US20250304559A1, “Ether-Linked Antiviral Compounds” (Pfizer Inc., priority 2021, published 2025).

The Ki is the dissociation constant of the complex between target and ligand, obtained from inhibition or displacement. Usually EC50 stands for the concentration that produces a half-maximal response.

In one test the target is T1, SARS-CoV-2 3CL protease (Severe acute respiratory syndrome coronavirus 2, UniProt P0DTD1).
T1 construct: measures the activity of full-length SARS-CoV-2 3CL protease
In words: SARS-CoV-2 Coronavirus 3C Protease FRET Assay. The format is biochemical. The conditions noted are these: Examples 14-78 and 114 (second head of Table 2); Morrison equation fit, 15 nM enzyme, 25 μM peptide substrate; read-out: Geometric Mean Ki (nM) IC50.

Test [1] has as its system SARS-CoV-2 (USA_WA1/2020). In words: Antiviral Activity from SARS-CoV-2 Infection (cytopathic effect, Cell Titer-Glo). The format is cell-based. Particulars: Severe acute respiratory syndrome coronavirus 2, Vero C1008, 72 h, VeroE6 cells enriched for hACE2, MOI 0.002, 3-day incubation; tested alone or with P-gp inhibitor CP-100356 2 μM (table does not say which); read-out: Geometric Mean EC50. On the technique in general: Cytopathic effects are the visible damage that an infection or toxin causes in cultured cells.

The structures appear in SMILES notation.

As for `CC(C)C[C@@H](C(=O)N1C[C@H]2[C@@H]([C@H]1C(=O)N[C@@H](C[C@@H]1CCNC1=O)C(=O)COc1cc(C(F)(F)F)nn1C)C2(C)C)N(C)C(C)C` (single isomer, unassigned) [Example 65, (1R,2S,5S)-6,6-dimethyl-3-[N-methyl-N-(propan-2-yl)-L-leucyl]-N-{(2R*)-4-{[1-methyl-3-(trifluoromethyl)-1H-pyrazol-5-yl]oxy}-3-oxo-1-[(3S)-2-oxopyrrolidin-3-yl]butan-2-yl}-3-azabicyclo[3.1.0]hexane-2-carboxamide, DIAST-1], the Ki at SARS-CoV-2 3CL protease was found to be 96.7 nM. For the same compound, the EC50 in test [1] stood at 133 nM.
